The source of these data is ChEMBL document CHEMBL3286199, “Synthesis, in vitro antimicrobial and cytotoxic activities of novel pyrimidine-benzimidazol combinations” (Bioorg Med Chem Lett, 2014).

In general, pIC50 refers to −log10 of the IC50, conventionally taken in molar units. Low readings indicate a high IC50, high ones a low IC50. Broadly, the MIC is the smallest concentration in the dilution series that meets the test's criterion for growth inhibition. Lower therefore signals a more susceptible organism.

Test [1] in a line: Cytotoxicity against human EC109 cells after 72 hrs by MTT assay. In kind it is functional, cell-based. Particulars: ECa-109, 72 h. (Formazan colour is commonly taken as a measure of viable cells.)
The next test has as its system PC-3. The test is described as follows: Cytotoxicity against human PC3 cells after 72 hrs by MTT assay. The class given is functional, cell-based. Conditions: PC-3, 72 h.
The subject of a further test is Escherichia coli. The test is described as follows: Antimicrobial activity against Escherichia coli after 18 to 24 hrs by broth microdilution method. In kind it is functional.
The next test relates to Candida albicans. The test is described as follows: Antimicrobial activity against Candida albicans after 48 hrs by broth microdilution method. In kind it is functional. Background: Broth dilution looks for growth in wells or tubes with falling amounts of substance.
The test system of test [2] is Stenotrophomonas maltophilia. The test is described as follows: Antimicrobial activity against Stenotrophomonas maltophilia after 18 to 24 hrs by broth microdilution method. In kind it is functional.
In the next test the test system is MCF7. The test is described as follows: Cytotoxicity against human MCF7 cells after 72 hrs by MTT assay. In kind it is functional, cell-based. Conditions: MCF7, 72 h.
The test system of the next test is Staphylococcus aureus. The test is described as follows: Antimicrobial activity against Staphylococcus aureus after 18 to 24 hrs by broth microdilution method. The class given is functional.
Another test deals with MGC-803. The test is described as follows: Cytotoxicity against human MGC803 cells after 72 hrs by MTT assay. The class given is functional, cell-based. Particulars: MGC-803, 72 h.
The next test has as its system Bacillus subtilis. The test is described as follows: Antimicrobial activity against Bacillus subtilis after 18 to 24 hrs by broth microdilution method. In kind it is functional.

pIC50: −log10 of the molar value. Converted amounts (≈) assume the structure as drawn.

Consider `Cc1cc(Nc2ccc(Cl)cc2)nc(SCc2nc3ccccc3[nH]2)n1`, for which the negative logarithm of the IC50 (pIC50) in test [1] is 4.69; with PC-3, 4.44; with MCF7, 4.47; with MGC-803 it was 4.55. Besides, the MIC against Escherichia coli worked out at 128 µg/mL (≈ 335 µM); in the test on Candida albicans it was 64 µg/mL (≈ 168 µM); in [2], 2 µg/mL (≈ 5.24 µM); against Staphylococcus aureus it was 8 µg/mL (≈ 20.9 µM); in the test with Bacillus subtilis, 128 µg/mL (≈ 335 µM).
Consider `Cc1ccc(Nc2cc(C)nc(SCc3nc4ccccc4[nH]3)n2)cc1`, for which the negative logarithm of the IC50 (pIC50) in test [1] was 4.24; in the test with PC-3 it was 4.25; in the test with MCF7 it was 4.25; in the test with MGC-803, 5.13. Besides, the minimal inhibitory concentration (MIC) against Escherichia coli was 32 µg/mL (≈ 88.5 µM); in the test with Candida albicans, 64 µg/mL (≈ 177 µM); in test [2], 8 µg/mL (≈ 22.1 µM); in the test on Staphylococcus aureus, 32 µg/mL (≈ 88.5 µM); against Bacillus subtilis, 64 µg/mL (≈ 177 µM).
Turning to `Cc1cc(Nc2ccc(F)cc2)nc(SCc2nc3ccccc3[nH]2)n1`, the negative-log IC50 (pIC50) in test [1] was 4.16; with PC-3, 4.25; in the test with MCF7, 4.37; with MGC-803, 5.24. For the same compound, the MIC in the test on Escherichia coli was 64 µg/mL (≈ 175 µM); with Candida albicans it was 8 µg/mL (≈ 21.9 µM); in [2], 32 µg/mL (≈ 87.6 µM); against Staphylococcus aureus, 32 µg/mL (≈ 87.6 µM); in the test with Bacillus subtilis it was 64 µg/mL (≈ 175 µM).
In the case of `Cc1cc(N2CCNCC2)nc(SCc2nc3ccccc3[nH]2)n1`, the pIC50 (in test [1]; with PC-3; in the test with MCF7; with MGC-803) was < 4.00 each time. Further, the minimum inhibitory concentration (MIC) is > 128 µg/mL in the test with Escherichia coli; > 128 µg/mL in the test on Candida albicans; 32 µg/mL (≈ 94 µM) in [2]; > 128 µg/mL against Staphylococcus aureus; 128 µg/mL (≈ 376 µM) with Bacillus subtilis.
For `Cc1cc(N(C)Cc2ccccc2)nc(SCc2nc3ccccc3[nH]2)n1`, the negative-log IC50 (pIC50) was < 4.00 in test [1], < 4.00 in the test with PC-3, < 4.00 with MCF7 and 4.50 in the test on MGC-803. Besides, the MIC with Escherichia coli is > 128 µg/mL; against Candida albicans, 128 µg/mL (≈ 341 µM); in test [2], 16 µg/mL (≈ 42.6 µM); against Staphylococcus aureus it was 128 µg/mL (≈ 341 µM); in the test on Bacillus subtilis it was > 128 µg/mL.
Turning to `OC(Cn1cncn1)(Cn1cncn1)c1ccc(F)cc1F` [FLUCONAZOLE], the lowest concentration to inhibit growth in the test with Candida albicans (MIC) was 2 µg/mL (≈ 6.53 µM).
With `Cc1cc(NCCO)nc(SCc2nc3ccccc3[nH]2)n1`, the negative-log IC50 (pIC50) (in test [1]; in the test with PC-3; with MCF7; with MGC-803) was < 4.00 each time. Further, the minimal inhibitory concentration (MIC) is 64 µg/mL (≈ 203 µM) against Escherichia coli; > 128 µg/mL with Candida albicans; 64 µg/mL (≈ 203 µM) in test [2]; > 128 µg/mL against Staphylococcus aureus; > 128 µg/mL in the test on Bacillus subtilis.
Regarding `Cc1cc(N2CCCCC2)nc(SCc2nc3ccccc3[nH]2)n1`, the negative-log IC50 (pIC50) (in test [1]; in the test on PC-3; with MCF7; with MGC-803) was < 4.00 in each case. Moreover, the minimal inhibitory concentration (MIC) in the test with Escherichia coli is > 128 µg/mL; with Candida albicans it was 32 µg/mL (≈ 94.3 µM); in test [2] it was 64 µg/mL (≈ 189 µM); with Staphylococcus aureus it was > 128 µg/mL; in the test on Bacillus subtilis, > 128 µg/mL.
With `Cc1cc(N(CCO)CCO)nc(SCc2nc3ccccc3[nH]2)n1`, the pIC50 (in [1]; in the test with PC-3; in the test on MCF7; with MGC-803) was < 4.00 in each case. Also, the MIC with Escherichia coli is 64 µg/mL (≈ 178 µM); with Candida albicans, > 128 µg/mL; in [2] it was 128 µg/mL (≈ 356 µM); with Staphylococcus aureus, > 128 µg/mL; against Bacillus subtilis, > 128 µg/mL.
On to `C[C@H]1COc2c(N3CCN(C)CC3)c(F)cc3c(=O)c(C(=O)O)cn1c23.C[C@H]1COc2c(N3CCN(C)CC3)c(F)cc3c(=O)c(C(=O)O)cn1c23.O` [LEVOFLOXACIN], for which the MIC was found to be 0.125 µg/mL against Escherichia coli, 0.25 µg/mL in test [2], 0.5 µg/mL in the test on Staphylococcus aureus and 0.25 µg/mL against Bacillus subtilis.
Turning to `Cc1cc(Nc2ccc(Br)cc2)nc(SCc2nc3ccccc3[nH]2)n1`, the pIC50 in test [1] is 4.37; in the test with PC-3, 4.43; in the test on MCF7 it was 4.42; with MGC-803 it was 4.57. Also, the minimum inhibitory concentration (MIC) is 128 µg/mL (≈ 300 µM) with Escherichia coli; 8 µg/mL (≈ 18.8 µM) against Candida albicans; 4 µg/mL (≈ 9.38 µM) in test [2]; 16 µg/mL (≈ 37.5 µM) with Staphylococcus aureus; 128 µg/mL (≈ 300 µM) in the test on Bacillus subtilis.
For `COc1ccc(Nc2cc(C)nc(SCc3nc4ccccc4[nH]3)n2)cc1`, the negative logarithm of the IC50 (pIC50) in [1] was 4.16; in the test on PC-3 it was 4.17; in the test on MCF7 it was 4.21; in the test on MGC-803, 4.29. Also, the minimum inhibitory concentration (MIC) in the test with Escherichia coli was determined as 128 µg/mL (≈ 339 µM); in the test with Candida albicans it was 64 µg/mL (≈ 170 µM); in test [2] it was 16 µg/mL (≈ 42.4 µM); in the test with Staphylococcus aureus, 64 µg/mL (≈ 170 µM); in the test on Bacillus subtilis, 32 µg/mL (≈ 84.8 µM).
Take `O=c1[nH]cc(F)c(=O)[nH]1` [FLUOROURACIL]: the pIC50 in [1] is 4.62; in the test on PC-3, 5.33; with MCF7, 5.11; in the test with MGC-803, 5.09.
Turning to `COc1ccccc1Nc1cc(C)nc(SCc2nc3ccccc3[nH]2)n1`, the pIC50 in test [1] is 4.46; with PC-3, 4.15; in the test with MCF7, < 4.00; in the test with MGC-803 it was 4.25. For the same compound, the minimal inhibitory concentration (MIC) was 32 µg/mL (≈ 84.8 µM) in the test on Escherichia coli; 128 µg/mL (≈ 339 µM) in the test on Candida albicans; 8 µg/mL (≈ 21.2 µM) in test [2]; > 128 µg/mL against Staphylococcus aureus; 32 µg/mL (≈ 84.8 µM) with Bacillus subtilis.
As for `Cc1cc(NNC(N)=S)nc(SCc2nc3ccccc3[nH]2)n1`, the pIC50 (in test [1]; in the test with PC-3; with MCF7; with MGC-803) was < 4.00 throughout. The MIC was > 128 µg/mL in the test with Escherichia coli; 128 µg/mL (≈ 371 µM) against Candida albicans; 128 µg/mL (≈ 371 µM) in test [2]; > 128 µg/mL in the test on Staphylococcus aureus; > 128 µg/mL against Bacillus subtilis.
`Cc1cc(N2CCOCC2)nc(SCc2nc3ccccc3[nH]2)n1`: the negative-log IC50 (pIC50) (in [1]; in the test on PC-3; in the test with MCF7; in the test on MGC-803) was < 4.00 throughout. The MIC against Escherichia coli was > 128 µg/mL; against Candida albicans it was > 128 µg/mL; in [2] it was 32 µg/mL (≈ 93.7 µM); in the test on Staphylococcus aureus, > 128 µg/mL; against Bacillus subtilis, > 128 µg/mL.
Take `Cc1cc(NC(C)C)nc(SCc2nc3ccccc3[nH]2)n1`: the pIC50 (in test [1]; in the test with PC-3; in the test with MCF7; with MGC-803) was < 4.00 throughout. The MIC is > 128 µg/mL against Escherichia coli; 128 µg/mL (≈ 408 µM) with Candida albicans; 32 µg/mL (≈ 102 µM) in test [2]; > 128 µg/mL with Staphylococcus aureus; > 128 µg/mL against Bacillus subtilis.
For the compound `Cc1cc(Nc2cccc(C(F)(F)F)c2)nc(SCc2nc3ccccc3[nH]2)n1`, the pIC50 (in test [1]; in the test with PC-3; with MCF7; in the test with MGC-803) was < 4.00 in each case. Moreover, the MIC in the test on Escherichia coli is > 128 µg/mL; in the test with Candida albicans, > 128 µg/mL; in test [2] it was 8 µg/mL (≈ 19.3 µM); against Staphylococcus aureus it was > 128 µg/mL; in the test on Bacillus subtilis, > 128 µg/mL.
